According to the supplement of paper PMC11061612:

What was measured:
Assay in all cases: Bliss excess, mean over the matrix (fraction); higher = more synergy
5637 (Bladder Carcinoma) = system: 5637 (Bladder Carcinoma)
Outline: (§1)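 Bliss excess equals the observed combination effect minus the expected value EA + EB − EA·EB, where EA and EB are the effects of each agent alone. Combination Emax is the second-highest inhibition within the matrix. Inhibition was scaled from CellTiter-Glo 2.0 luminescence, with 0 set by vehicle wells and 1 by blank wells, after 72 hours of two-drug dosing of cells plated in 1536-well plates.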

A101D (Melanoma) = system: A101D (Melanoma)
Outline: as §1

AU565 (Breast Carcinoma) = system: AU565 (Breast Carcinoma)
Outline: as §1

[1] = system: CGTH-W-1 (Thyroid Gland Carcinoma)
Outline: as §1

COLO-792 (Melanoma) = system: COLO-792 (Melanoma)
Outline: as §1

[2] = system: DU-4475 (Breast Carcinoma)
Outline: as §1

EB2 (Burkitt's Lymphoma) = system: EB2 (Burkitt's Lymphoma)
Outline: as §1

EW-16 (Ewing's Sarcoma) = system: EW-16 (Ewing's Sarcoma)
Outline: as §1

[3] = system: GCT (Other Solid Carcinomas)
Outline: as §1

[4] = system: HT55 (Colorectal Carcinoma)
Outline: as §1

IM-9 (Non-Cancerous) = system: IM-9 (Non-Cancerous)
Outline: as §1

[5] = system: JVM-2 (B-Cell Non-Hodgkin's Lymphoma)
Outline: as §1

[6] = system: KYSE-140 (Esophageal Squamous Cell Carcinoma)
Outline: as §1

[7] = system: LU-165 (Small Cell Lung Carcinoma)
Outline: as §1

[8] = system: MDA-MB-436 (Breast Carcinoma)
Outline: as §1

NB13 (Neuroblastoma) = system: NB13 (Neuroblastoma)
Outline: as §1

[9] = system: NCI-H1703 (Squamous Cell Lung Carcinoma)
Outline: as §1

[10] = system: NCI-H716 (Colorectal Carcinoma)
Outline: as §1

[11] = system: SK-HEP-1 (Hepatocellular Carcinoma)
Outline: as §1

[12] = system: huH-1 (Hepatocellular Carcinoma)
Outline: as §1

**Q.** For `CC1(C)CCC(CN2CCN(c3ccc(C(=O)NS(=O)(=O)c4ccc(NCC5CCOCC5)c([N+](=O)[O-])c4)c(Oc4cnc5[nH]ccc5c4)c3)CC2)=C(c2ccc(Cl)cc2)C1` [Venetoclax] + CN(C)CCCOc1ccc(-c2ccc3ncc4c(c3c2)n(C2CCOCC2)c(=O)n4C)cn1 [AZD0156] (first compound max 1 µM, 7x7, partner max 1 µM), which Bliss excess (5637 (Bladder Carcinoma)) is on record?
**A.** -0.0273

**Q.** What about the Bliss excess (A101D (Melanoma)) of the same compound?
**A.** 0.0088

**Q.** And the Bliss excess (AU565 (Breast Carcinoma))?
**A.** 0.0206

**Q.** And the Bliss excess [1]?
**A.** -0.0286

**Q.** What about the Bliss excess (COLO-792 (Melanoma)) of the same compound?
**A.** 0.0153

**Q.** What about the Bliss excess [2] of the same compound?
**A.** -0.0158

**Q.** And the Bliss excess (EB2 (Burkitt's Lymphoma))?
**A.** 0.0106

**Q.** And the Bliss excess (EW-16 (Ewing's Sarcoma))?
**A.** -0.0659

**Q.** And the Bliss excess [3]?
**A.** -0.0404

**Q.** And the Bliss excess [4]?
**A.** -0.0443

**Q.** What about the Bliss excess (IM-9 (Non-Cancerous)) of the same compound?
**A.** 0.0254

**Q.** What about the Bliss excess [5] of the same compound?
**A.** 0.0143

**Q.** And the Bliss excess [6]?
**A.** 0.0177

**Q.** And the Bliss excess [7]?
**A.** -0.0309

**Q.** What about the Bliss excess [8] of the same compound?
**A.** -0.0319

**Q.** What about the Bliss excess (NB13 (Neuroblastoma)) of the same compound?
**A.** 0.021

**Q.** And the Bliss excess [9]?
**A.** 0.013

**Q.** And the Bliss excess [10]?
**A.** -0.0272

**Q.** And the Bliss excess [11]?
**A.** -0.057

**Q.** What about the Bliss excess [12] of the same compound?
**A.** -0.032

**Q.** For `CC1(C)CCC(CN2CCN(c3ccc(C(=O)NS(=O)(=O)c4ccc(NCC5CCOCC5)c([N+](=O)[O-])c4)c(Oc4cnc5[nH]ccc5c4)c3)CC2)=C(c2ccc(Cl)cc2)C1` [Venetoclax] + COc1cc(Nc2ncc3c(n2)-c2ccc(Cl)cc2C(c2c(F)cccc2OC)=NC3)ccc1C(=O)O [Alisertib] (first compound max 1 µM, 7x7, partner max 10 µM), which Bliss excess (5637 (Bladder Carcinoma)) is on record?
**A.** -0.0313

**Q.** What about the Bliss excess (A101D (Melanoma)) of the same compound?
**A.** 0.077

**Q.** What about the Bliss excess (AU565 (Breast Carcinoma)) of the same compound?
**A.** 0.106

**Q.** What about the Bliss excess [1] of the same compound?
**A.** -0.0198

**Q.** What about the Bliss excess (COLO-792 (Melanoma)) of the same compound?
**A.** 0.0487

**Q.** And the Bliss excess [2]?
**A.** 0.0933

**Q.** What about the Bliss excess (EB2 (Burkitt's Lymphoma)) of the same compound?
**A.** 0.13

**Q.** And the Bliss excess (EW-16 (Ewing's Sarcoma))?
**A.** 0.0541

**Q.** And the Bliss excess [3]?
**A.** -0.0365

**Q.** What about the Bliss excess [4] of the same compound?
**A.** 0.0009

**Q.** And the Bliss excess (IM-9 (Non-Cancerous))?
**A.** 0.043

**Q.** What about the Bliss excess [5] of the same compound?
**A.** 0.0333

**Q.** What about the Bliss excess [6] of the same compound?
**A.** 0.0471

**Q.** And the Bliss excess [7]?
**A.** 0.027

**Q.** What about the Bliss excess [8] of the same compound?
**A.** -0.0299

**Q.** What about the Bliss excess (NB13 (Neuroblastoma)) of the same compound?
**A.** 0.0028

**Q.** What about the Bliss excess [9] of the same compound?
**A.** 0.0636

**Q.** What about the Bliss excess [10] of the same compound?
**A.** -0.0203

**Q.** What about the Bliss excess [11] of the same compound?
**A.** -0.0578

**Q.** What about the Bliss excess [12] of the same compound?
**A.** -0.02

**Q.** For `CC1(C)CCC(CN2CCN(c3ccc(C(=O)NS(=O)(=O)c4ccc(NCC5CCOCC5)c([N+](=O)[O-])c4)c(Oc4cnc5[nH]ccc5c4)c3)CC2)=C(c2ccc(Cl)cc2)C1` [Venetoclax] + C[C@@H]1COCCN1C2=NC(=NC(=C2)C3(CC3)[S@](=N)(=O)C)C4=C5C=CNC5=NC=C4 [AZD6738] (first compound max 1 µM, 7x7, partner max 10 µM), which Bliss excess (5637 (Bladder Carcinoma)) is on record?
**A.** -0.048

**Q.** And the Bliss excess (A101D (Melanoma))?
**A.** -0.0313

**Q.** And the Bliss excess (AU565 (Breast Carcinoma))?
**A.** 0.0024

**Q.** And the Bliss excess [1]?
**A.** -0.0224

**Q.** What about the Bliss excess (COLO-792 (Melanoma)) of the same compound?
**A.** 0.03

**Q.** What about the Bliss excess [2] of the same compound?
**A.** 0.0062

**Q.** What about the Bliss excess (EB2 (Burkitt's Lymphoma)) of the same compound?
**A.** -0.035

**Q.** What about the Bliss excess (EW-16 (Ewing's Sarcoma)) of the same compound?
**A.** -0.0607

**Q.** And the Bliss excess [3]?
**A.** -0.112

**Q.** And the Bliss excess [4]?
**A.** -0.0511

**Q.** And the Bliss excess (IM-9 (Non-Cancerous))?
**A.** 0.0201

**Q.** What about the Bliss excess [5] of the same compound?
**A.** -0.0035

**Q.** What about the Bliss excess [6] of the same compound?
**A.** -0.0185

**Q.** What about the Bliss excess [7] of the same compound?
**A.** -0.117

**Q.** And the Bliss excess [8]?
**A.** -0.0167

**Q.** What about the Bliss excess (NB13 (Neuroblastoma)) of the same compound?
**A.** 0.0633

**Q.** And the Bliss excess [9]?
**A.** -0.0216

**Q.** What about the Bliss excess [10] of the same compound?
**A.** -0.0015

**Q.** What about the Bliss excess [11] of the same compound?
**A.** -0.0342

**Q.** What about the Bliss excess [12] of the same compound?
**A.** -0.045

**Q.** Which results are given for `CC1(C)CCC(CN2CCN(c3ccc(C(=O)NS(=O)(=O)c4ccc(NCC5CCOCC5)c([N+](=O)[O-])c4)c(Oc4cnc5[nH]ccc5c4)c3)CC2)=C(c2ccc(Cl)cc2)C1` [Venetoclax] + C[C@@H](Nc1cc(F)cc(F)c1)c1cc(C(=O)N(C)C)cc2c(=O)cc(N3CCOCC3)oc12 [AZD8186] (first compound max 1 µM, 7x7, partner max 3 µM)?
**A.** Bliss excess (5637 (Bladder Carcinoma)): -0.0273; Bliss excess (A101D (Melanoma)): 0.0305; Bliss excess (AU565 (Breast Carcinoma)): -0.0033; Bliss excess [1]: -0.0244; Bliss excess (COLO-792 (Melanoma)): 0.0036; Bliss excess [2]: -0.0202; Bliss excess (EB2 (Burkitt's Lymphoma)): 0.0231; Bliss excess (EW-16 (Ewing's Sarcoma)): -0.0278; Bliss excess [3]: -0.0154; Bliss excess [4]: -0.0193; Bliss excess (IM-9 (Non-Cancerous)): -0.0608; Bliss excess [5]: 0.0354; Bliss excess [6]: -0.0149; Bliss excess [7]: -0.0042; Bliss excess [8]: -0.0092; Bliss excess (NB13 (Neuroblastoma)): -0.0171; Bliss excess [9]: 0.0037; Bliss excess [10]: -0.047; Bliss excess [11]: -0.0299; Bliss excess [12]: -0.0265

**Q.** With `CC1(C)CCC(CN2CCN(c3ccc(C(=O)NS(=O)(=O)c4ccc(NCC5CCOCC5)c([N+](=O)[O-])c4)c(Oc4cnc5[nH]ccc5c4)c3)CC2)=C(c2ccc(Cl)cc2)C1` [Venetoclax] + Cc1cc2ncnn2cc1Nc1ncc2c(n1)n(C1CCOCC1)c(=O)n2C [AZD7648] (first compound max 1 µM, 7x7, partner max 10 µM) as the compound, how does the Bliss excess (5637 (Bladder Carcinoma)) read?
**A.** -0.0504

**Q.** And the Bliss excess (A101D (Melanoma))?
**A.** -0.0394

**Q.** What about the Bliss excess (AU565 (Breast Carcinoma)) of the same compound?
**A.** 0.0266

**Q.** And the Bliss excess [1]?
**A.** -0.0771

**Q.** And the Bliss excess (COLO-792 (Melanoma))?
**A.** -0.0139

**Q.** What about the Bliss excess [2] of the same compound?
**A.** 0.0152

**Q.** What about the Bliss excess (EB2 (Burkitt's Lymphoma)) of the same compound?
**A.** -0.0338

**Q.** And the Bliss excess (EW-16 (Ewing's Sarcoma))?
**A.** -0.0534

**Q.** What about the Bliss excess [3] of the same compound?
**A.** -0.046

**Q.** And the Bliss excess [4]?
**A.** -0.0069

**Q.** What about the Bliss excess (IM-9 (Non-Cancerous)) of the same compound?
**A.** 0.0403

**Q.** And the Bliss excess [5]?
**A.** -0.025

**Q.** What about the Bliss excess [6] of the same compound?
**A.** -0.0044

**Q.** What about the Bliss excess [7] of the same compound?
**A.** -0.0259

**Q.** And the Bliss excess [8]?
**A.** -0.04

**Q.** And the Bliss excess (NB13 (Neuroblastoma))?
**A.** 0.0559

**Q.** What about the Bliss excess [9] of the same compound?
**A.** 0.0396

**Q.** And the Bliss excess [10]?
**A.** -0.0146

**Q.** And the Bliss excess [11]?
**A.** -0.0387

**Q.** What about the Bliss excess [12] of the same compound?
**A.** -0.0511

**Q.** `CC1(C)CCC(CN2CCN(c3ccc(C(=O)NS(=O)(=O)c4ccc(NCC5CCOCC5)c([N+](=O)[O-])c4)c(Oc4cnc5[nH]ccc5c4)c3)CC2)=C(c2ccc(Cl)cc2)C1` [Venetoclax] + Cn1cnc2c(F)c(Nc3ccc(Br)cc3Cl)c(C(=O)NOCCO)cc21 [Selumetinib] (first compound max 1 µM, 7x7, partner max 3 µM) was tested. Which Bliss excess (5637 (Bladder Carcinoma)) did it give?
**A.** -0.0194

**Q.** And the Bliss excess (A101D (Melanoma))?
**A.** -0.0254

**Q.** What about the Bliss excess (AU565 (Breast Carcinoma)) of the same compound?
**A.** 0.0147

**Q.** What about the Bliss excess [1] of the same compound?
**A.** -0.0482

**Q.** And the Bliss excess (COLO-792 (Melanoma))?
**A.** 0.0083

**Q.** And the Bliss excess [2]?
**A.** -0.0057

**Q.** And the Bliss excess (EB2 (Burkitt's Lymphoma))?
**A.** 0.0012

**Q.** And the Bliss excess (EW-16 (Ewing's Sarcoma))?
**A.** -0.0561

**Q.** What about the Bliss excess [3] of the same compound?
**A.** -0.0399

**Q.** What about the Bliss excess [4] of the same compound?
**A.** -0.0356

**Q.** And the Bliss excess (IM-9 (Non-Cancerous))?
**A.** 0.111

**Q.** What about the Bliss excess [5] of the same compound?
**A.** 0.0617

**Q.** And the Bliss excess [6]?
**A.** -0.0042

**Q.** And the Bliss excess [7]?
**A.** -0.0588

**Q.** What about the Bliss excess [8] of the same compound?
**A.** -0.0303

**Q.** And the Bliss excess (NB13 (Neuroblastoma))?
**A.** -0.0837

**Q.** What about the Bliss excess [9] of the same compound?
**A.** 0.0061

**Q.** What about the Bliss excess [10] of the same compound?
**A.** -0.0814

**Q.** What about the Bliss excess [11] of the same compound?
**A.** -0.0378

**Q.** And the Bliss excess [12]?
**A.** -0.0539
